ChEMBL document CHEMBL1240338, “BIBF 1120: triple angiokinase inhibitor with sustained receptor blockade and good antitumor efficacy” (Cancer Res, 2008)

Key:
[1] = Antiangiogenic activity in HUASMC assessed as inhibition of PDGF BB-induced cell proliferation by [3H]thymidine incorporation assay; format: functional; settings: Homo sapiens
[2] = Plasma concentration in NMRI nu/nu mouse at 50 mg/kg, po after 1 hr; format: ADME, organism-based; set-up: dose 50 mg/kg, route oral
FaDu [3] = experiment: Antitumor activity against human FADU cells xenografted in NMRI nu/nu mouse assessed as tumor growth at 50 mg/kg, po qd for 5 days relative to control
FaDu [4] = experiment: Antitumor activity against human FADU cells xenografted in NMRI nu/nu mouse assessed as tumor growth at 25 mg/kg, po qd for 5 days relative to control
CAKI-1 [5] = experiment: Antitumor activity against human Caki1 cells xenografted in NMRI nu/nu mouse assessed as tumor growth at 50 mg/kg, po qd for 5 days relative to control
HeLa = experiment: Antiangiogenic activity in human HeLa assessed as inhibition of cell proliferation by [3H]thymidine incorporation assay in presence of fetal calf serum; format: functional, cell-based
FaDu [6] = experiment: Antitumor activity against human FADU cells xenografted in NMRI nu/nu mouse assessed as reduction of tumor vessel density at 100 mg/kg, po qd for 5 days by Meca 32 immunohistochemistry image analysis relative to control; set-up: scale not given: the % may be the effect or the level left
FaDu [7] = experiment: Antitumor activity against human FADU cells xenografted in NMRI nu/nu mouse assessed as tumor growth at 10 mg/kg, po qd for 5 days relative to control
[8] = target: Cyclin-dependent kinase 2 (Homo sapiens, UniProt P24941); experiment: Inhibition of human CDK2
CAKI-1 [9] = experiment: Antitumor activity against human Caki1 cells xenografted in NMRI nu/nu mouse assessed as tumor growth at 100 mg/kg, po qd for 5 days relative to control
HUVEC [10] = experiment: Antiangiogenic activity in HUVEC assessed as inhibition of bFGF-induced cell proliferation by [3H]thymidine incorporation assay; format: functional, cell-based; settings: Homo sapiens
Calu-6 = experiment: Antiangiogenic activity in human Calu6 assessed as inhibition of cell proliferation by [3H]thymidine incorporation assay in presence of fetal calf serum; format: functional, cell-based
[11] = Antiangiogenic activity in HSMEC assessed as inhibition of VEGF-induced cell proliferation by [3H]thymidine incorporation assay; format: functional; settings: Homo sapiens
HUVEC [12] = experiment: Antiangiogenic activity in HUVEC assessed as inhibition of VEGF-induced cell proliferation by [3H]thymidine incorporation assay; format: functional, cell-based; settings: Homo sapiens
CAKI-1 [13] = experiment: Antitumor activity against human Caki1 cells xenografted in NMRI nu/nu mouse assessed as tumor growth at 10 mg/kg, po qd for 5 days relative to control
FaDu [14] = experiment: Antiangiogenic activity in human FADU assessed as inhibition of cell proliferation by [3H]thymidine incorporation assay in presence of fetal calf serum; format: functional, cell-based
FaDu [15] = experiment: Antitumor activity against human FADU cells xenografted in NMRI nu/nu mouse assessed as tumor growth at 100 mg/kg, po qd for 5 days relative to control
[16] = Antitumor activity against rat GS-9L cells implanted in syngeneic F344 Fischer rat assessed as inhibition of tumor growth at 10 mg/kg, po qd for 5 days relative to control
[17] = Trough plasma concentration in NMRI nu/nu mouse at 50 mg/kg, po after 24 hrs; format: ADME, organism-based; set-up: dose 50 mg/kg, route oral
[18] = Antitumor activity against rat GS-9L cells implanted in syngeneic F344 Fischer rat assessed as inhibition of tumor growth at 50 mg/kg, po qd for 5 days relative to control
Mus musculus [19] = experiment: Toxicity in human FADU cells xenografted in NMRI nu/nu mouse assessed weight loss at 100 mg/kg, po qd for 5 days; format: organism-based; set-up: dose 100 mg/kg, route oral; settings: in vivo, 120 h
[20] = Antitumor activity against rat GS-9L cells implanted in syngeneic F344 Fischer rat assessed as inhibition of tumor growth at 25 mg/kg, po qd for 5 days relative to control
[21] = Antiangiogenic activity in HSMEC assessed as inhibition of VEGF-induced apoptosis by [3H]thymidine incorporation assay; format: functional, Homo sapiens
FaDu [22] = experiment: Antitumor activity against human FADU cells xenografted in NMRI nu/nu mouse assessed as reduction of PDGFR-beta-positive mural cells at 100 mg/kg, po qd for 5 days by PDGFR-beta immunohistochemistry image analysis relative to control; set-up: scale not given: the % may be the effect or the level left
FaDu [23] = experiment: Antitumor activity against human FADU cells xenografted in NMRI nu/nu mouse assessed as inhibition of tumor growth at 50 mg/kg, po qd for 2 days relative to control; format: functional
[24] = Antiangiogenic activity in BRP assessed as inhibition of PDGF BB-induced cell proliferation by [3H]thymidine incorporation assay; format: functional; settings: Bos taurus
HUVEC [25] = experiment: Induction of apoptosis in HUVEC at 50 nM by TUNEL assay (reference value: 2%); format: cell-based; settings: human, 0.05 µM
HUVEC [26] = experiment: Antiangiogenic activity in HUVEC assessed as inhibition of VEGF-induced apoptosis by [3H]thymidine incorporation assay; format: functional, cell-based; settings: Homo sapiens
Mus musculus [27] = experiment: Toxicity in human FADU cells xenografted in NMRI nu/nu mouse assessed mortality at 100 mg/kg, po qd for 5 days; format: organism-based; set-up: dose 100 mg/kg, route oral; settings: in vivo, 120 h

COC(=O)c1ccc2c(c1)NC(=O)/C2=C(\Nc1ccc(N(C)C(=O)CN2CCN(C)CC2)cc1)c1ccccc1 [NINTEDANIB]
EC50 [1]: 69 nM
concentration at 1 h [2]: 1000 nM
T/C (FaDu [3]): 27%
T/C (FaDu [4]): 46%
T/C (CAKI-1 [5]): 25%
EC50 (HeLa): > 3500 nM
Activity (FaDu [6]): 76%
T/C (FaDu [7]): 82%
IC50 [8]: > 10000 nM
T/C (CAKI-1 [9]): 16%
EC50 (HUVEC [10]): 290 nM
EC50 (Calu-6): > 3500 nM
EC50 [11]: 7 nM
EC50 (HUVEC [12]): 9 nM
T/C (CAKI-1 [13]): 71%
EC50 (FaDu [14]): > 4500 nM
T/C (FaDu [15]): 11%
T/C [16]: 74%
concentration at 24 h [17]: < 8 nM
T/C [18]: 30%
Activity (Mus musculus [19]): Non-toxic
T/C [20]: 45%
EC50 [21]: < 10 nM
Activity (FaDu [22]): 64%
T/C (FaDu [23]): 15%
EC50 [24]: 79 nM
Activity (HUVEC [25]): 28%
EC50 (HUVEC [26]): < 10 nM
Activity (Mus musculus [27]): Non-toxic
